Where two headings read alike, the source gives them in different places.
Assays:
[1] = system: annual weeds tested including foxtail, lambsquarters, and pigweed; conditions: found by the USDA; cited from earlier work
[2] = system: Canada thistle and other perennials; conditions: cited from earlier work
[3] = system: monocotyledonous wheat plants (Triticum aestivum); conditions: foliar spray 5%; one day post-treatment
Description: (§1) In order to determine whether formic acid could be used as a foliar herbicide it was applied as a foliar spray to the leaves of dicotyledonous radish plants (Raphanus sativas) and monocotyledonous wheat plants (Triticum aestivum). Solutions were applied to plants using a small handheld sprayer.
(§2) Formic acid and acetic acid solutions at three concentrations (1%, 3%, 5%) were applied and water was used as a check. A barrier was inserted between the rows of plants on either side of the row being treated to avoid drift of sprays into neighboring rows. Plants were evaluated at 24-hour and 72-hour intervals for the number of surviving plants and a percentage was derived from this number in comparison with the number of plants originally present in the row.

[4] = system: dicotyledonous radish plants (Raphanus sativas); conditions: one day post-treatment
Description: as §1, §2

[5] = system: wheat (Triticum aestivum); conditions: spray
Method: (§3) The herbicidal effect of formic acid was compared with that of acetic acid in a greenhouse study using radish (Raphanus sativus) and wheat (Triticum aestivum) as test plants. Both formic acid and acetic acid were diluted in water at 1, 3, and 5%, and deionized water was used as a control. Tween 20 was added to each of the solutions at a rate 0.04% for use as a surfactant. Solutions were applied to plants using a small handheld sprayer. Plants were evaluated at 24- and 72-hours after treatment for the % control.

[6] = system: radish (Raphanus sativus); conditions: spray
Method: as §3

CC(=O)O [Acetic acid]
share of annual weeds tested against which effective [1]: 80% | control of perennials [2]: does not control the root system | wheat plants killed [3]: 30% | foliage surviving, radish ([4]; foliar spray 1%): 50% | foliage surviving, radish ([4]; foliar spray 3%): 30% | killing of foliage of radish plants ([4]; foliar spray 5%): killed all foliage | % control of wheat seedlings ([5]; 5%, 72-h): 28% | % control of wheat seedlings ([5]; lower concentrations (1 and 3%), after 72-h): 5-14% | % control of the dicot weeds (radish) ([6]; 1%): 51% | % control of the dicot weeds (radish) ([6]; 3%): 71% | control of radish plants compared with formic acid (100%) ([6]; 5% dilution): comparable
